According to PubChem BioAssay (NCI):
Where “and” joins values, the source holds several entries; their conditions need not be identical. Equal entries are not always repeated.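 The compound was tested at five concentrations on cells cultured in 96-well plates, with a 48-hour exposure period. The concentration for 50% growth inhibition is given as GI50. The concentration for full growth arrest is given as TGI.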

Tests used:
Assay in all cases: inhibition of tumour cell growth, NCI panel, 48 h
CAKI-1 renal = system: CAKI-1 renal
DMS 114 small cell lung = system: DMS 114 small cell lung
KM20L2 colon = system: KM20L2 colon
DU-145 prostate = system: DU-145 prostate
HS 578T breast = system: HS 578T breast
MCF7 breast = system: MCF7 breast
T-47D breast = system: T-47D breast
DMS 273 small cell lung = system: DMS 273 small cell lung
LXFL 529 NSCLC = system: LXFL 529 NSCLC
XF 498 CNS = system: XF 498 CNS

| SMILES | TGI (CAKI-1 renal) | TGI (DMS 114 small cell lung) | TGI (KM20L2 colon) | GI50 (CAKI-1 renal) | GI50 (DU-145 prostate) | TGI (DU-145 prostate) | GI50 (HS 578T breast) | TGI (HS 578T breast) | GI50 (MCF7 breast) | TGI (MCF7 breast) | GI50 (T-47D breast) | TGI (T-47D breast) | TGI (DMS 273 small cell lung) | TGI (LXFL 529 NSCLC) | TGI (XF 498 CNS) |
| --- | --- | --- | --- | --- | --- | --- | --- | --- | --- | --- | --- | --- | --- | --- | --- |
| COc1ccc(Cc2cc3c(cc2OCC(=O)O)OCO3)cc1 | > 100 µM | > 100 µM | > 100 µM |  |  |  |  |  |  |  |  |  |  |  |  |
| Fc1ccc(-c2ncn(C3CCNCC3)c2-c2ccnc(Oc3ccc(F)c(F)c3)n2)cc1 | > 20.6 µM |  |  | 10.6 µM | 8.78 µM | > 16.7 µM | 9.58 µM | > 18.4 µM | 4.28 µM | 8.27 µM | 4.7 µM | 10.2 µM |  |  |  |
| O=C(Nc1ccccc1O)c1ccc(CNc2ccnc(C(F)(F)F)c2)cc1 | 14.3 µM |  |  | 1.74 µM | 3.38 µM | 19.4 µM | 2.59 µM | 32.9 µM | 4.43 µM | > 100 µM | 2.5 µM | 24.8 µM |  |  |  |
| Clc1ccc(C2=Nn3c(nnc3-c3cc(Cl)cc(Cl)c3Cl)SC2)cc1 | 31.3 µM |  |  | 14.6 µM | 34.2 µM | > 100 µM | 16.5 µM | 71.3 µM | 11.8 µM | 92.7 µM | > 100 µM | > 100 µM |  |  |  |
| COc1cc2c3c(n(CCCNCCCNCCCNCCCN)c(=O)c2cc1OC)-c1cc2c(cc1C3=O)OCO2 | 3.8 µM |  |  | 1.78 µM | 1.42 µM | 4.19 µM | 2.78 µM | 8.42 µM | 0.712 µM | 2.47 µM | 2.36 µM | > 100 µM |  |  |  |
| Cc1ccc(C2NC(=O)c3ccccc3N2)s1 (stereo not given) |  | > 100 µM | 39.3 µM |  |  |  |  |  |  |  |  |  | > 100 µM | > 100 µM | 19 µM |
| CC(=O)O[C@@H]1[C@@H](O)C2=C3[C@]4(C)[C@@H]1C(C)(C)C(=O)C[C@@H]4[C@]3(O)[C@H](OC(C)=O)[C@@]1(C[C@@H]1C)C2=O | 33.2 µM |  |  |  |  | 33.8 µM |  | > 100 µM |  | 47.4 µM |  | 36 µM |  |  |  |
| CCCCCCCCCc1cc[n+](CC(=O)c2ccc([N+](=O)[O-])cc2)cc1 | 12 µM |  |  | 3.19 µM | 0.729 µM | 2.04 µM | 1.69 µM | 4.51 µM | 0.397 µM | 1.79 µM | 1.63 µM | 3.64 µM |  |  |  |
| O=c1cc(-c2ccccc2)oc2cc(O)cc(O)c12 |  | 58.2 µM | 53.1 µM |  |  |  |  |  |  |  |  |  | 34 µM | 48.3 µM | 44.1 µM |
| CC#C/C(=N\OC[C@H]1COCCN1)c1ccc2ncnc(Nc3ccc(OCc4cccc(F)c4)c(Cl)c3)c2c1 | 10.4 µM |  |  | 0.183 µM | 1.1 µM | 2.36 µM | 1.89 µM | 4.46 µM | 1.57 µM | 3.05 µM | 0.0582 µM | 4.47 µM |  |  |  |
| COc1ccc(-c2nc(C(=O)c3ccccc3)n(CC(=O)c3ccccc3)c2-c2ccc(OC)cc2)cc1 | > 100 µM |  |  | > 100 µM | > 100 µM | > 100 µM | > 100 µM | > 100 µM | > 100 µM | > 100 µM | > 100 µM | > 100 µM |  |  |  |
| CN1CCN(c2ccc(Nc3nc(N)c(C(=O)c4ccc5c(c4)OCCO5)s3)cc2)CC1 | 7 µM |  |  | 1.18 µM | 4.34 µM | 16.5 µM | 2.32 µM | 12.2 µM | 2.85 µM | 7.73 µM | 3.69 µM | 9.7 µM |  |  |  |
| Cc1ccc(C(=O)Nc2ccc(S(=O)(=O)O)c3cc(S(=O)(=O)O)cc(S(=O)(=O)O)c23)cc1NC(=S)Nc1cc(C(=O)Nc2ccc(S(=O)(=O)O)c3cc(S(=O)(=O)O)cc(S(=O)(=O)O)c23)ccc1C | > 75 µM |  |  |  |  | > 75 µM |  |  |  | > 75 µM |  |  |  |  |  |
| CS(=O)(=O)CCNCc1ccc(-c2ccc3ncnc(Nc4ccc(OCc5cccc(F)c5)c(C(F)(F)F)c4)c3c2)o1 | 13.7 µM |  |  | 4.59 µM | 3.91 µM | 8.07 µM | 3.88 µM | 13.5 µM | 3.84 µM | 7.74 µM | 3.4 µM | 7.74 µM |  |  |  |
| COc1ccc(/C=C2\CC(C)CC3C2=NN(C(C)=O)C3c2ccc(OC)cc2)cc1 (stereo not given) | > 100 µM |  |  | 30.5 µM | 25.7 µM | 78.1 µM | 22.1 µM | 60.6 µM | 20 µM | 63.3 µM | 25.7 µM | > 100 µM |  |  |  |
| CN(C)CCSc1cccc(-c2cc(-c3cccc(SCCN(C)C)c3)nc(SCCN(C)C)n2)c1 |  |  | 3.46 µM |  |  |  |  |  |  |  |  |  |  | 3.89 µM |  |
| O=c1c(O)cccc2cc(O)c(O)c(O)c12 | > 100 µM |  |  | 14.3 µM | 18.8 µM | > 100 µM | 5.42 µM | > 100 µM | 6.46 µM | 23.9 µM | > 100 µM | > 100 µM |  |  |  |
| COC1=CC23CCCN2CCc2cc4c(cc2C3C1O)OCO4 (stereo not given) | 92 µM |  |  |  |  | > 100 µM |  | > 100 µM |  | > 100 µM |  | > 100 µM |  |  |  |
| COC(=O)Nc1nc2ccc(C(=O)c3ccc(N(C)C4COC4)cc3)cc2[nH]1 | > 100 µM |  |  | 0.435 µM | 0.392 µM | > 100 µM | 0.358 µM | > 100 µM | 0.346 µM | > 100 µM |  |  |  |  |  |
| N#CSc1c[nH]c2ccc(/C=C/C(=O)/C=C(/C=C/c3ccc4[nH]cc(SC#N)c4c3)OB(F)F)cc12 | 4.05 µM |  |  | 0.531 µM | 0.694 µM | 2.55 µM | 1.36 µM | > 100 µM | 0.458 µM | 3.5 µM | 0.791 µM | 8.6 µM |  |  |  |
| O=C(/C=N/O)Nc1cc(Cl)c(Cl)cc1Cl | 79.8 µM |  |  |  |  | > 100 µM |  | 85.5 µM |  | > 100 µM |  | 95.5 µM |  |  |  |
| CCN(CC)c1ccc2c(c1)Oc1nc(N)c(C#N)c(N)c1C2Sc1ccc(OC)cc1 (stereo not given) |  |  |  |  | 1.82 µM | 3.25 µM | 2.17 µM | 6.11 µM |  |  | 1.91 µM | 4.89 µM |  |  |  |
| CC(C)CC(=O)Nc1n[nH]c2c1CN(C(=O)C1CCN(C)CC1)C2(C)C | > 10 µM |  |  | 4.79 µM | 1.6 µM | > 10 µM | 0.712 µM | > 10 µM | 0.191 µM | > 10 µM | 1.59 µM | 9.54 µM |  |  |  |
| COc1cc(Nc2ncc(F)c(Nc3ccc4c(n3)NC(=O)C(C)(C)O4)n2)cc(OC)c1OC | > 10 µM |  |  | 0.618 µM | > 10 µM | > 10 µM | 0.218 µM and 0.787 µM |  | 3.93 µM | > 10 µM |  | > 100 µM |  |  |  |
